Results: US20260275317A1, “CHIMERIC ENDOLYSINS WITH ACTIVITY AGAINST STREPTOCOCCI AND STAPHYLOCOCCI” (UNIVERSITEIT GENT, priority 2023, published 2026)

Key:
[1] = tested on: S. uberis in mastitic raw cow's milk; assay: Challenge of mastitic raw cow's milk; format: cell-based, Streptococcus uberis; conditions: milk of 4 cows, 8 h; 0.5 μM NC5, 50 μg/mL cloxacillin or both
Method: Raw cow's milk from S. uberis infected dairy cows was supplied by the milk control center of Flanders (MCC Vlaanderen). Upon arrival, the milk was serially diluted and plated on BHI agar to determine the bacterial load. Only milk with >10^5 […] CFU/mL S. uberis was included as a selection criterium. If needed, the raw milk was incubated during 8 h at 37° C. to artificially increase the initial bacterial load. […] Upon incubation at 37° C., every 2 h, 20 μL was transferred from each well to 180 μL dPBS, serially diluted and plated on BHI agar. Plates were incubated overnight and CFU/mL were calculated the next day. Undiluted, mastitic milk was always pipetted with ClipTip Pipette Tips (Westburg, The Netherlands) due to high viscosity. Mastitis isolates were confirmed as S. uberis by MALDI-TOF MS biotyping.

[2] = tested on: S. uberis-infected murine mammary glands; assay: Mouse model of S. uberis mastitis: inflammatory protein profiling in mammary gland lysates; format: in vivo; conditions: 30 μg cloxacillin stand-alone
Excerpt: (§1) All experimental procedures on mice were executed at the Faculty of Veterinary Medicine of Ghent University (Merelbeke, Belgium). Breeding pairs of female and male CD-1 mice (Envigo, The Netherlands) were allowed to mate during two weeks, after which the dams gave birth approximately seven days later. Twelve days postpartum, the lactating dams were intraductally inoculated with a blunted 32 gauge pediatric needle in the fourth inguinal mammary gland pair after properly disinfecting the teat. These intraductal inoculations were always performed under general gas anesthesia, using a mixture of medical oxygen and isoflurane at 2.5-3.0% for induction and 1.5-2.0% for maintenance. The long-acting analgesic buprenorphine was administered at 10 μg/kg intraperitoneally for post-surgical pain relief. An inoculum dose of approximately […] colony forming units (CFU) of a clinical bovine mastitis S. uberis isolate in 100 μl dPBS was intraductally inoculated at 1 h post-weaning and mice were grouped ad random at 12 h post-infection (p.i.) and placed under gas anesthesia a second time to administer intramammary treatment. […] The treated mice were sedated 16 h p.i. (i.e., 4 h post-treatment). The therapeutics were diluted in dPBS to their desired concentration, mixed by pipetting and kept on melting ice until they were administered intraductally within 1 h after preparation. Inoculum preparation was done by growing S. uberis to stationary phase in brain heart infusion (BHI), after which cells were washed with dPBS and diluted in dPBS to the desired concentration based on OD600 measurements.
The host response to the experimental mammary gland infection and subsequent therapy was investigated by determining the levels of inflammatory cytokines and chemokines in mammary gland lysates, obtained by mixing the homogenates with 300 μL caspase lysis buffer (CLB) containing protease inhibitors, and subsequent centrifugation (12,000 g; 4° C.; 20 min). Protein concentration of these lysates was determined using the Bradford protein assay. Standardization of the mammary gland lysates was done by dilution in CLB to assure equal protein concentrations. Levels of the selected inflammatory mediators TNF-α, MCP-1, M-& G-CSF as well as IL-1α, -1β, -6, & -8, were determined on mammary gland lysates using a ProcartaPlex Immunoassay. Quantification of CHI3L1 and LCN2 was performed by ELISA.

[3] = tested on: S. uberis-infected murine mammary glands; assay: Mouse model of S. uberis mastitis: bacterial load and clinical symptoms; format: in vivo; conditions: 30 μg cloxacillin stand-alone
Excerpt: as §1, with “Inoculum preparation was done by growing S. uberis to stationary phase in brain heart infusion (BHI), after which cells were washed with dPBS and diluted in dPBS to the desired concentration based on OD600 measurements.” left out

[4] = tested on: S. uberis-infected murine mammary glands; assay: Mouse model of S. uberis mastitis: Ly6G immunohistochemistry (neutrophil influx); format: in vivo; conditions: 30 μg cloxacillin stand-alone
Excerpt: as §1, with “Inoculum preparation was done by growing S. uberis to stationary phase in brain heart infusion (BHI), after which cells were washed with dPBS and diluted in dPBS to the desired concentration based on OD600 measurements.” left out

Compound: Cc1onc(-c2ccccc2Cl)c1C(=O)N[C@@H]1C(=O)N2[C@@H]1SC(C)(C)[C@@H]2C(=O)O [cloxacillin]
- log10 reduction of S. uberis versus PBS control [1]: significant (p<0.05) reductions in all 4 mastitic milk samples at 8 h
- CHI3L1 reduction versus placebo [2]: 1.4 fold
- IL-1α decrease versus placebo [2]: 1.2 fold
- IL-1β decrease versus placebo [2]: 1.3 fold
- IL-6 decrease versus placebo [2]: 2.0 fold
- LCN2 reduction versus placebo [2]: 1.2 fold
- MCP-1 reduction versus placebo [2]: 1.5 fold
- MIP-2 decrease versus placebo [2]: 1.6 fold
- TNF-α decrease versus placebo [2]: 1.4 fold
- decrease in CFU numbers versus placebo [3]: 630 fold
- decrease of bacterial load versus placebo ([3]; intramammary, 4 h post-treatment, all mice): 55 fold
- reduced neutrophil influx (Ly6G-positive staining) versus placebo [4]: 1.8 fold
